Experiment [1] deals with human orexin-2 receptor (hOX2R) (Homo sapiens (Human), UniProt O43614). Kind of experiment: FLIPR Ca2+ Flux Assay, CHO cells expressing human orexin-2 receptor. To be noted: agonist Ala-6,12 human orexin-A 70 pM. It is filed as cell-based. The method, then:
Briefly, for intracellular calcium measurements, Chinese hamster ovary (CHO) cells expressing the orexin-1 receptor (e.g., rat or human) or the orexin-2 receptor (e.g., rat or human), are grown in Iscove's modified DMEM containing 2 mM L-glutamine, […], 1% hypoxanthine-thymidine supplement, 100 U/ml penicillin, 100 μg/ml streptomycin and 10% heat-inactivated fetal calf serum (FCS). The cells are seeded at approximately 20,000 cells per well into 384-well clear bottom sterile plates coated with poly-D-lysine. The seeded plates are incubated overnight at 37° C. and 5% CO2. Human ala-6,12 orexin-A can be used as the agonist and prepared as a 1 mM stock solution in 1% bovine serum albumin (BSA) and diluted in assay buffer (HBSS containing 20 mM HEPES, 0.1% BSA and 2.5 mM probenecid, pH7.4) for use in the assay at a final concentration of 70 pM. Test compounds are prepared as 10 mM stock solution in DMSO, then diluted in 384-well plates, first in DMSO, then in assay buffer. On the day of the assay, cells are washed 3 times with 100 μl assay buffer and then incubated for 60 minutes (37° C., 5% CO2) in 60 μl assay buffer containing 1 μM Fluo-4 AM ester, 0.02% pluronic acid, and 1% BSA. The dye loading solution is then aspirated and cells are washed 3 times with 100 μl assay buffer. 30 μl of that same buffer is left in each well. Within the Fluorescent Imaging Plate Reader (FLIPR, Molecular Devices), test compounds are added to the plate in a volume of 25 μl, incubated for 5 minutes, and then 25 μl of agonist is added. Fluorescence is measured for each well at 1 second intervals for 5 minutes, and the height of each fluorescence peak is compared to the height of the fluorescence peak induced by 70 pM of agonist ala-6,12 orexin-A with buffer in place of test compound. IC50 value for the test compound is determined to be the concentration of compound needed to inhibit 50% of the agonist response. Alternatively, compound potency can be assessed using a radioligand binding assay (described in Bergman et. al., Bioorg. Med. Chem. Lett. 2008, 18:1425-1430) in which the inhibition constant (Ki) is determined in membranes prepared from CHO cells expressing either the OX1 or OX2 receptor. The intrinsic orexin receptor antagonist activity of a compound of the present invention may be determined by these assays. […]
In general terms: Calcium assays in cells follow changes in intracellular calcium, usually with a dye or a luminescent sensor.

Experiment [2] deals with human orexin-1 receptor (hOX1R) (Homo sapiens (Human), UniProt O43613). As to the kind of experiment: FLIPR Ca2+ Flux Assay, CHO cells expressing human orexin-1 receptor. It is filed as cell-based. To be noted: agonist Ala-6,12 human orexin-A 70 pM. An excerpt: The utility of the compounds in accordance with the present invention as orexin receptor OX1R and/or OX2R antagonists may be readily determined without undue experimentation by methodology well known in the art, including the “FLIPR Ca^2+ Flux Assay” (Okumura et al., Biochem. Biophys. Res. Comm. 2001, 280:976-981). Briefly, for intracellular calcium measurements, Chinese hamster ovary (CHO) cells expressing the orexin-1 receptor (e.g., rat or human) or the orexin-2 receptor (e.g., rat or human), are grown in Iscove's modified DMEM containing 2 mM L-glutamine, […], 1% hypoxanthine-thymidine supplement, 100 U/ml penicillin, 100 μg/ml streptomycin and 10% heat-inactivated fetal calf serum (FCS). The cells are seeded at approximately 20,000 cells per well into 384-well clear bottom sterile plates coated with poly-D-lysine. The seeded plates are incubated overnight at 37° C. and 5% CO2. Human ala-6,12 orexin-A can be used as the agonist and prepared as a 1 mM stock solution in 1% bovine serum albumin (BSA) and diluted in assay buffer (HBSS containing 20 mM HEPES, 0.1% BSA and 2.5 mM probenecid, pH7.4) for use in the assay at a final concentration of 70 pM. Test compounds are prepared as 10 mM stock solution in DMSO, then diluted in 384-well plates, first in DMSO, then in assay buffer. On the day of the assay, cells are washed 3 times with 100 μl assay buffer and then incubated for 60 minutes (37° C., 5% CO2) in 60 μl assay buffer containing 1 μM Fluo-4 AM ester, 0.02% pluronic acid, and 1% BSA. The dye loading solution is then aspirated and cells are washed 3 times with 100 μl assay buffer. 30 μl of that same buffer is left in each well. Within the Fluorescent Imaging Plate Reader (FLIPR, Molecular Devices), test compounds are added to the plate in a volume of 25 μl, incubated for 5 minutes, and then 25 μl of agonist is added. Fluorescence is measured for each well at 1 second intervals for 5 minutes, and the height of each fluorescence peak is compared to the height of the fluorescence peak induced by 70 pM of agonist ala-6,12 orexin-A with buffer in place of test compound. IC50 value for the test compound is determined to be the concentration of compound needed to inhibit 50% of the agonist response. Alternatively, compound potency can be assessed using a radioligand binding assay (described in Bergman et. al., Bioorg. Med. Chem. Lett. 2008, 18:1425-1430) in which the inhibition constant (Ki) is determined in membranes prepared from CHO cells expressing either the OX1 or OX2 receptor. The intrinsic orexin receptor antagonist activity of a compound of the present invention may be determined by these assays.

SMILES strings stand for the structures.

This passage reports IC50 results from patent US9695163B2, “Thiazole orexin receptor antagonists” (MERCK SHARP & DOHME CORP., priority 2013, dated 2017).

By IC50 is commonly meant the midpoint of a concentration-inhibition curve.

human orexin-1 receptor (hOX1R), sequence (O43613 whole entry): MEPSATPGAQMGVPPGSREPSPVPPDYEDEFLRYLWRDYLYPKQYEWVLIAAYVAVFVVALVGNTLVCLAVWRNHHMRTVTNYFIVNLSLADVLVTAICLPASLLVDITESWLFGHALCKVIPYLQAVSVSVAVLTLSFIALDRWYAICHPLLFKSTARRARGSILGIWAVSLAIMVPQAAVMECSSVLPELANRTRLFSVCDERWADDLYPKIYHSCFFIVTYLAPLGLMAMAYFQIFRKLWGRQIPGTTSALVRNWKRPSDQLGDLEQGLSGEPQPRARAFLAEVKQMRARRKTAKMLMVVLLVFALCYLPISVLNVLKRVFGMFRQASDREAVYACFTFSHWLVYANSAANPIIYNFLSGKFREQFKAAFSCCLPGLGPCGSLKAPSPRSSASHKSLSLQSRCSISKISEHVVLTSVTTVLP
human orexin-2 receptor (hOX2R), sequence (O43614 whole entry): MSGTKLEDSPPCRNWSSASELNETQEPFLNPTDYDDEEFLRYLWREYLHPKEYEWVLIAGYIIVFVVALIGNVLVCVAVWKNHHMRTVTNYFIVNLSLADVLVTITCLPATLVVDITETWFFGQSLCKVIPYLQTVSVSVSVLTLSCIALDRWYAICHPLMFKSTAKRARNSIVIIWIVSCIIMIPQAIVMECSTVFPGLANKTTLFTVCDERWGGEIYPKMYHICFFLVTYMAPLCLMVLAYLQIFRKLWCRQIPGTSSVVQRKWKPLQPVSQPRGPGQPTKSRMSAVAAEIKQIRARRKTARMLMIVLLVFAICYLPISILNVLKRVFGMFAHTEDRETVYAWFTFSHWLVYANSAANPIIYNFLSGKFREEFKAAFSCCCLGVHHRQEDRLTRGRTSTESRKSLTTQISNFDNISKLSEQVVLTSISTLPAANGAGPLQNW

As for `CCOC(=O)c1cnc([C@@H]2CC[C@@H](C)N(C(=O)c3ccccc3-n3nccn3)C2)s1` [Example 1, Ethyl 2-((3R,6R)-1-(2-(2H-1,2,3-triazol-2-yl)benzoyl)-6-methylpiperidin-3-yl)thiazole-5-carboxylate], the half-inhibitory concentration (IC50) in experiment [1] was 1510 nM; in experiment [2], greater than 10 µM.
Consider `C[C@@H]1CC[C@@H](c2ncc(C(C)(C)O)s2)CN1C(=O)c1ccccc1-n1nccn1` [Example 2, (2-(2H-1,2,3-Triazol-2-yl)phenyl)((2R,5R)-5-(5-(2-hydroxypropan-2-yl)thiazol-2-yl)-2-methylpiperidin-1-yl)methanone], for which the values for the half-maximal inhibitory concentration (IC50) in experiment [1] and in experiment [2] were 67 nM and greater than 10 µM, respectively.
On the same counts, the results for `C[C@@H]1CC[C@H](c2ncc(C(C)(C)O)s2)CN1C(=O)c1ccccc1-n1nccn1` [Example 3, (2-(2H-1,2,3-Triazol-2-yl)phenyl)((2R,5S)-5-(5-(2-hydroxypropan-2-yl)thiazol-2-yl)-2-methylpiperidin-1-yl)methanone] are 2650 nM and greater than 10 µM.
For `C[C@@H]1CC[C@@H](c2cnc(C(C)(C)O)s2)CN1C(=O)c1ccccc1-n1nccn1` [Example 4, (2-(2H-1,2,3-triazol-2-yl)phenyl)((2R,5R)-5-(2-(2-hydroxypropan-2-yl)thiazol-5-yl)-2-methylpiperidin-1-yl)methanone] the same measures were 50 nM and greater than 10 µM.
For `C[C@@H]1CC[C@@H](c2nc(C(C)(C)O)cs2)CN1C(=O)c1ccccc1-n1nccn1` [Example 5], the IC50 stood at 17 nM in experiment [1] and 2.25 µM in experiment [2].
In the case of `C[C@@H]1CC[C@@H](c2nc([C@H](O)C(F)(F)F)cs2)CN1C(=O)c1ccccc1-n1nccn1` [Example 6, (2-(2H-1,2,3-triazol-2-yl)phenyl)((2R,5R)-2-methyl-5-(4-((S)-2,2,2-trifluoro-1-hydroxyethyl)thiazol-2-yl)piperidin-1-yl)methanone], the IC50 in experiment [1] was determined as 165 nM; in experiment [2], 10 µM.
On the same counts, the results for `C[C@@H]1CC[C@@H](c2nc([C@@H](O)C(F)(F)F)cs2)CN1C(=O)c1ccccc1-n1nccn1` [Example 7, (2-(2H-1,2,3-triazol-2-yl)phenyl)((2R,5R)-2-methyl-5-(4-((R)-2,2,2-trifluoro-1-hydroxyethyl)thiazol-2-yl)piperidin-1-yl)methanone] are 15 nM and 0.36 µM.
On the same counts, the results for `C[C@@H]1CC[C@@H](c2nc([C@@H](O)C(F)F)cs2)CN1C(=O)c1ccccc1-n1nccn1` [Example 8] are 133 nM and greater than 10 µM.
On the same counts, the results for `C[C@@H]1CC[C@@H](c2nc([C@H](O)C(F)F)cs2)CN1C(=O)c1ccccc1-n1nccn1` [Example 9] are 9.4 nM and 0.52 µM.
Turning to `C[C@@H]1CC[C@@H](c2nc(C(C)(C)O)cs2)CN1C(=O)c1ccsc1-n1nccn1` [Example 10, (2-(2H-1,2,3-triazol-2-yl)thiophen-3-yl)((2R,5R)-5-(4-(2-hydroxypropan-2-yl)thiazol-2-yl)-2-methylpiperidin-1-yl)methanone], the IC50 is 19 nM in experiment [1] and 7.4 µM in experiment [2].
Take `C[C@@H]1CC[C@@H](c2nc(C(C)(C)O)cs2)CN1C(=O)c1ccccc1C1(C#N)CC1` [Example 11, 1-(2-((2R,5R)-5-(4-(2-Hydroxypropan-2-yl)thiazol-2-yl)-2-methylpiperidine-1-carbonyl)phenyl)cyclopropanecarbonitrile]: the IC50 in experiment [1] amounted to 15 nM; in experiment [2], 0.95 µM.
On the same counts, the results for `COC(=O)c1ccccc1C(=O)N1C[C@H](c2nc(C(C)(C)O)cs2)CC[C@H]1C` [Example 12, Methyl 2-((2R,5R)-5-(4-(2-hydroxypropan-2-yl)thiazol-2-yl)-2-methylpiperidine-1-carbonyl)benzoate] are 44 nM and greater than 10 µM.
As to `C[C@@H]1CC[C@@H](c2nc(C(C)(C)O)cs2)CN1C(=O)c1ccc(F)cc1-n1nccn1` [Example 13, (4-fluoro-2-(2H-1,2,3-triazol-2-yl)phenyl)((2R,5R)-5-(4-(2-hydroxypropan-2-yl)thiazol-2-yl)-2-methylpiperidin-1-yl)methanone], the IC50 was 19 nM in experiment [1] and 2.25 µM in experiment [2].
For `C[C@@H]1CC[C@@H](c2nc(C(C)(C)O)cs2)CN1C(=O)c1ccccc1-n1ncnn1` [Example 14, (2-(2H-Tetrazol-2-yl)phenyl)((2R,5R)-5-(4-(2-hydroxypropan-2-yl)thiazol-2-yl)-2-methylpiperidin-1-yl)methanone], the IC50 in experiment [1] was 21 nM; in experiment [2], greater than 10 µM.
For the compound `C[C@@H]1CC[C@@H](c2nc(C(C)(C)O)cs2)CN1C(=O)c1cscc1-n1nccn1` [Example 15, (4-(2H-1,2,3-Triazol-2-yl)thiophen-3-yl)((2R,5R)-5-(4-(2-hydroxypropan-2-yl)thiazol-2-yl)-2-methylpiperidin-1-yl)methanone], the figures for the half-inhibitory concentration (IC50) in experiment [1] and in experiment [2] were 16 nM and greater than 10 µM, respectively.
On the same counts, the results for `C[C@@H]1CC[C@@H](c2nc(C(C)(C)O)cs2)CN1C(=O)c1cscc1-c1ncccn1` [Example 16, ((2R,5R)-5-(4-(2-hydroxypropan-2-yl)thiazol-2-yl)-2-methylpiperidin-1-yl)(4-(pyrimidin-2-yl)thiophen-3-yl)methanone] are 25 nM and 1 µM.
For the compound `C[C@@H]1CC[C@@H](c2nc(C(C)(C)O)cs2)CN1C(=O)c1ccccc1-c1ncccn1` [Example 17, ((2R,5R)-5-(4-(2-Hydroxypropan-2-yl)thiazol-2-yl)-2-methylpiperidin-1-yl)(2-(pyrimidin-2-yl)phenyl)methanone], the IC50 worked out at 29 nM in experiment [1] and 5.47 µM in experiment [2].
With `C[C@@H]1CC[C@@H](c2nc(C(C)(C)O)cs2)CN1C(=O)c1ccsc1-c1ncccn1` [Example 18, ((2R,5R)-5-(4-(2-Hydroxypropan-2-yl)thiazol-2-yl)-2-methylpiperidin-1-yl)(2-(pyrimidin-2-yl)thiophen-3-yl)methanone], the 50% inhibitory concentration (IC50) is 114 nM in experiment [1] and greater than 10 µM in experiment [2].
With `Cc1sc([C@@H]2CC[C@@H](C)N(C(=O)c3ccccc3-n3nccn3)C2)nc1C(C)(C)O` [Example 19, (2-(2H-1,2,3-Triazol-2-yl)phenyl)((2R,5R)-5-(4-(2-hydroxypropan-2-yl)-5-methylthiazol-2-yl)-2-methylpiperidin-1-yl)methanone], the 50% inhibitory concentration (IC50) in experiment [1] amounted to 14 nM; in experiment [2], 0.33 µM.
`C[C@@H]1CC[C@@H](c2csc(C(C)(C)O)n2)CN1C(=O)c1ccccc1-n1ncnn1` [Example 29, (2-(2H-Tetrazol-2-yl)phenyl)((2R,5R)-5-(2-(2-hydroxypropan-2-yl)thiazol-4-yl)-2-methylpiperidin-1-yl)methanone] showed an IC50 in experiment [1] of 15 nM.
